{
  "source": "patent US11034700B2",
  "about": "“Substituted pyrrolidine compound and use thereof” (Takeda Pharmaceutical Company Limited, priority 2017, dated 2021)",
  "data": [
    {"target": "T1, human OX2 receptor (Homo sapiens, UniProt O43614)", "T1 construct": "expressed in transfected cells", "T1 sequence (O43614 1-444)": "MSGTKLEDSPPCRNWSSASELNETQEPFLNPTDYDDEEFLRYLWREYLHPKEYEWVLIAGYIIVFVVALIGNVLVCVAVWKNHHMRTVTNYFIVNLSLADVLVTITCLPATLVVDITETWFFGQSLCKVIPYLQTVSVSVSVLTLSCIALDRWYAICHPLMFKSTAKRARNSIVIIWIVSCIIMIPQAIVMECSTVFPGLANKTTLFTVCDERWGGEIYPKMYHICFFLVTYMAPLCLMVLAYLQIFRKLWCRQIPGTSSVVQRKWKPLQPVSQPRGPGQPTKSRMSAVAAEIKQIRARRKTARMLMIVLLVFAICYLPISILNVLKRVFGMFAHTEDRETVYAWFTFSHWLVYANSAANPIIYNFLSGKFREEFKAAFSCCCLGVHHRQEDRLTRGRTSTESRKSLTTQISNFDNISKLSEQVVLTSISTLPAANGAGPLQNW", "experiment": "Measurement of orexin type 2 receptor agonist activity (Fluo-4 calcium fluorescence, FDSS)", "format": "cell-based", "settings": "compound at 3 μM; CHO cells forcibly expressing human OX2 receptor; DMSO = 0%, orexin A (human) 10 nM = 100%", "source_text": "Experimental Example 1: Obtainment of Cell Stably Expressing Human Orexin Type 2 Receptor (hOX2R)\nTo obtain a cell clone stably expressing human orexin type 2 receptor, human orexin type 2 receptor cDNA was inserted into pcDNA3.1(+) plasmid vector (Invitrogen), and a plasmid DNA for expression of human orexin type 2 receptor (pcDNA3.1(+)/hOX2R) was cloned. The plasmid DNA was introduced into CHO-dhfr cell by an electroporation method, and human orexin type 2 receptor expressing clone cells were obtained by limiting dilution method by using G418 drug resistance as a selection marker.\nExperimental Example 2: Measurement of Orexin Type 2 Receptor Agonist Activity\nCHO cells forcibly expressing human OX2 receptor were seeded in each well of 384 well black transparent bottom plate (BD Falcon) at 7,500 cells/well, and cultured for one day in a 5% CO2 incubator at 37° C. After removal of the medium in the cell plate, assay buffer A containing a calcium indicator (HESS (Life Technologies), 20 mM HEPES (Life Technologies), 0.1% BSA (Wako Pure Chemical Industries, Ltd.), 2.5 μg/mL Fluo-4 AM (DOJINDO Chemical), 0.08% Pluronic F127 (DOJINDO Chemical), 1.25 mM probenecid (DOJINDO Chemical)) was added at 30 μL/well. The plate was stood for 30 min in a 5% CO2 incubator at 37° C., and further stood at room temperature for 30 min. A test compound prepared by diluting with assay buffer B (HESS, 20 mM HEPES, 0.1% BSA) was added at 10 μL/well, and the fluorescence value was measured by FDSSμCELL (Hamamatsu Photonics K.K.) every one sec for 1 min, and thereafter every two sec for 1 min 40 sec. The activity (%) of the test compound was calculated assuming that variation in the fluorescence value when DMSO was added instead of the test compound was 0% […], and variation in the fluorescence value when orexin A (human) (PEPTIDE INSTITUTE, INC.) was added at the final concentration of 10 nM was 100% […]. The activity of each compound at the concentration of 3 μM was shown below.", "units": {"OX2R agonist activity (3 μM, %)": "%"}, "values": [
      {"smiles": "COc1ccccc1S(=O)(=O)Nc1cccc(O[C@@H]2CN(C(=O)c3cc(C)ccc3C)C[C@H]2OC)c1", "note": "(relative stereo) [Example 56, trans-N-(3-((1-(2,5-dimethylbenzoyl)-4-methoxypyrrolidin-3-yl)oxy)phenyl)-2-methoxybenzenesulfonamide]", "OX2R agonist activity (3 μM, %)": 101},
      {"smiles": "COc1ccc(-c2cccc(C(=O)N(C)C)c2)cc1S(=O)(=O)Nc1cccc(O[C@@H]2CN(C(=O)c3cc(C)ccc3C)C[C@@H]2OC)c1", "note": "(relative stereo) [Example 59, cis-3′-((3-((1-(2,5-dimethylbenzoyl)-4-methoxypyrrolidin-3-yl)oxy)phenyl)sulfamoyl)-4′-methoxy-N,N-dimethylbiphenyl-3-carboxamide]", "OX2R agonist activity (3 μM, %)": 103},
      {"smiles": "COc1ccc(-c2cccc(C(=O)N(C)C)c2)cc1S(=O)(=O)Nc1cccc(O[C@@H]2CN(C(=O)c3cc(C)ccc3C)C[C@H]2OC)c1", "note": "(relative stereo) [Example 60, trans-3′-((3-((1-(2,5-dimethylbenzoyl)-4-methoxypyrrolidin-3-yl)oxy)phenyl)sulfamoyl)-4′-methoxy-N,N-dimethylbiphenyl-3-carboxamide]", "OX2R agonist activity (3 μM, %)": 105},
      {"smiles": "CO[C@@H]1CN(C(=O)c2cc(C)ccc2C)C[C@H]1Oc1cccc(NS(=O)(=O)c2ccccc2)c1", "note": "(relative stereo) [Example 65, trans-N-(3-((1-(2,5-dimethylbenzoyl)-4-methoxypyrrolidin-3-yl)oxy)phenyl)benzenesulfonamide]", "OX2R agonist activity (3 μM, %)": 78},
      {"smiles": "CCCS(=O)(=O)Nc1cccc(O[C@@H]2CN(C(=O)c3cc(C)ccc3C)C[C@H]2OC)c1", "note": "(relative stereo) [Example 66, trans-N-(3-((1-(2,5-dimethylbenzoyl)-4-methoxypyrrolidin-3-yl)oxy)phenyl)propane-1-sulfonamide]", "OX2R agonist activity (3 μM, %)": 76},
      {"smiles": "COc1ccccc1S(=O)(=O)Nc1ccc(F)c(O[C@@H]2CN(C(=O)c3cc(C)ccc3C)C[C@H]2OC)c1", "note": "(relative stereo) [Example 86, trans-N-(3-((1-(2,5-dimethylbenzoyl)-4-methoxypyrrolidin-3-yl)oxy)-4-fluorophenyl)-2-methoxybenzenesulfonamide]", "OX2R agonist activity (3 μM, %)": 80},
      {"smiles": "COc1ccccc1S(=O)(=O)Nc1cccc(O[C@@H]2CN(C(=O)c3cc(C)ccc3C)C[C@H]2OC)c1F", "note": "(relative stereo) [Example 87, trans-N-(3-((1-(2,5-dimethylbenzoyl)-4-methoxypyrrolidin-3-yl)oxy)-2-fluorophenyl)-2-methoxybenzenesulfonamide]", "OX2R agonist activity (3 μM, %)": 103},
      {"smiles": "COc1ccccc1S(=O)(=O)Nc1cccc(O[C@@H]2CN(C(=O)c3cc(C)ccc3C)C[C@H]2C)c1", "note": "(relative stereo) [Example 92, trans-N-(3-((1-(2,5-dimethylbenzoyl)-4-methylpyrrolidin-3-yl)oxy)phenyl)-2-methoxybenzenesulfonamide]", "OX2R agonist activity (3 μM, %)": 102},
      {"smiles": "CC[C@@H]1CN(C(=O)c2cc(C)ccc2C)C[C@H]1Oc1cccc(NS(=O)(=O)c2ccccc2OC)c1", "note": "(relative stereo) [Example 93, trans-N-(3-((1-(2,5-dimethylbenzoyl)-4-ethylpyrrolidin-3-yl)oxy)phenyl)-2-methoxybenzenesulfonamide]", "OX2R agonist activity (3 μM, %)": 80},
      {"smiles": "COc1ccccc1S(=O)(=O)Nc1cc(F)cc(O[C@@H]2CN(C(=O)c3cc(C)ccc3C)C[C@H]2OC)c1", "note": "(relative stereo) [Example 100, trans-N-(3-((1-(2,5-dimethylbenzoyl)-4-methoxypyrrolidin-3-yl)oxy)-5-fluorophenyl)-2-methoxybenzenesulfonamide]", "OX2R agonist activity (3 μM, %)": 102},
      {"smiles": "COc1ccccc1S(=O)(=O)Nc1ccnc(O[C@@H]2CN(C(=O)c3cc(C)ccc3C)C[C@H]2OC)c1", "note": "(relative stereo) [Example 101, trans-N-(2-((1-(2,5-dimethylbenzoyl)-4-methoxypyrrolidin-3-yl)oxy)pyridin-4-yl)-2-methoxybenzenesulfonamide]", "OX2R agonist activity (3 μM, %)": 95},
      {"smiles": "COc1ccccc1S(=O)(=O)Nc1cccc(O[C@@H]2CN(C(=O)c3cc(C)ccc3C)C[C@H]2OC)c1C", "note": "(relative stereo) [Example 103, trans-N-(3-((1-(2,5-dimethylbenzoyl)-4-methoxypyrrolidin-3-yl)oxy)-2-methylphenyl)-2-methoxybenzenesulfonamide]", "OX2R agonist activity (3 μM, %)": 80},
      {"smiles": "COc1ccccc1S(=O)(=O)Nc1cc(C)cc(O[C@@H]2CN(C(=O)c3cc(C)ccc3C)C[C@H]2OC)c1", "note": "(relative stereo) [Example 105, trans-N-(3-((1-(2,5-dimethylbenzoyl)-4-methoxypyrrolidin-3-yl)oxy)-5-methylphenyl)-2-methoxybenzenesulfonamide]", "OX2R agonist activity (3 μM, %)": 94},
      {"smiles": "COc1ccccc1S(=O)(=O)Nc1cncc(O[C@@H]2CN(C(=O)c3cc(C)ccc3C)C[C@H]2OC)c1", "note": "(relative stereo) [Example 106, trans-N-(5-((1-(2,5-dimethylbenzoyl)-4-methoxypyrrolidin-3-yl)oxy)pyridin-3-yl)-2-methoxybenzenesulfonamide]", "OX2R agonist activity (3 μM, %)": 104},
      {"smiles": "COc1ccccc1S(=O)(=O)Nc1cccc(O[C@@H]2CN(C(=O)c3cc(C)ccc3C)C[C@H]2F)c1", "note": "(relative stereo) [Example 107, trans-N-(3-((1-(2,5-dimethylbenzoyl)-4-fluoropyrrolidin-3-yl)oxy)phenyl)-2-methoxybenzenesulfonamide]", "OX2R agonist activity (3 μM, %)": 77},
      {"smiles": "CO[C@@H]1CN(C(=O)c2c(C)cccc2C)C[C@H]1Oc1cccc(NS(=O)(=O)c2sccc2Cl)c1F", "note": "(relative stereo) [Example 111, trans-3-chloro-N-(3-((1-(2,6-dimethylbenzoyl)-4-methoxypyrrolidin-3-yl)oxy)-2-fluorophenyl)thiophene-2-sulfonamide]", "OX2R agonist activity (3 μM, %)": 52},
      {"smiles": "COc1ccccc1S(=O)(=O)Nc1cccc(O[C@@H]2CN(C(=O)c3cc(C)ccc3C)C[C@H]2O)c1", "note": "(relative stereo) [Example 114, trans-N-(3-((1-(2,5-dimethylbenzoyl)-4-hydroxypyrrolidin-3-yl)oxy)phenyl)-2-methoxybenzenesulfonamide]", "OX2R agonist activity (3 μM, %)": 60},
      {"smiles": "COc1ccccc1S(=O)(=O)Nc1cccc(O[C@@H]2CN(C(=O)c3cc(C)ccc3C)C[C@H]2OC)c1Cl", "note": "(relative stereo) [Example 117, trans-N-(2-chloro-3-((1-(2,5-dimethylbenzoyl)-4-methoxypyrrolidin-3-yl)oxy)phenyl)-2-methoxybenzenesulfonamide]", "OX2R agonist activity (3 μM, %)": 66},
      {"smiles": "COc1ccccc1S(=O)(=O)Nc1cccc(C[C@@H]2CN(C(=O)c3cc(C)ccc3C)C[C@H]2OC)c1", "note": "(relative stereo) [Example 119, trans-N-(3-((1-(2,5-dimethylbenzoyl)-4-methoxypyrrolidin-3-yl)methyl)phenyl)-2-methoxybenzenesulfonamide]", "OX2R agonist activity (3 μM, %)": 57},
      {"smiles": "COc1ccccc1S(=O)(=O)Nc1cccc(O[C@@H]2CN(C(=O)c3cc(C)ccc3C)C[C@H]2C#N)c1", "note": "(relative stereo) [Example 126, trans-N-(3-((4-cyano-1-(2,5-dimethylbenzoyl)pyrrolidin-3-yl)oxy)phenyl)-2-methoxybenzenesulfonamide]", "OX2R agonist activity (3 μM, %)": 67},
      {"smiles": "COc1ccc(-c2cccc(C(=O)N(C)C)c2)cc1S(=O)(=O)Nc1cccc(NC2CCN(C(=O)c3cccc(C)c3)C2)c1", "note": "(centres unmarked) [Example 1, 4′-methoxy-N,N-dimethyl-3′-((3-((1-(3-methylbenzoyl)pyrrolidin-3-yl)amino)phenyl)sulfamoyl)biphenyl-3-carboxamide]", "OX2R agonist activity (3 μM, %)": 103},
      {"smiles": "COc1ccc(-c2cccc(C(=O)N(C)C)c2)cc1S(=O)(=O)Nc1cccc(OC2CCN(C(=O)c3cccc(C)c3)C2)c1", "note": "(centres unmarked) [Example 2, 4′-methoxy-N,N-dimethyl-3′-((3-((1-(3-methylbenzoyl)pyrrolidin-3-yl)oxy)phenyl)sulfamoyl)bipheny-3-carboxamide]", "OX2R agonist activity (3 μM, %)": 90},
      {"smiles": "COc1ccc(-c2cccc(C(=O)N(C)C)c2)cc1S(=O)(=O)Nc1cccc(O[C@H]2CCN(C(=O)c3cccc(C)c3)C2)c1", "note": "[Example 6, 4′-methoxy-N,N-dimethyl-3′-((3-(((3S)-1-(3-methylbenzoyl)pyrrolidin-3-yl)oxy)phenyl)sulfamoyl)biphenyl-3-carboxamide]", "OX2R agonist activity (3 μM, %)": 101}
    ]}
  ]
}
